Assay results as given in patent publication US20090197853A1, “METHODS AND COMPOSITIONS OF TREATING CANCER” (priority 2005, published 2009).

Legend:
Ramos cells [1] = test: Annexin-V apoptosis, Ramos; format: cell-based; details: single agent alone
Description: Methods: Annexin V/PI. Cells from exponential phase cultures were treated with MGd, zinc, or control (5% mannitol) solution for 24 or 48 hours. After incubation, cells were harvested and washed twice with a solution of 0.5% bovine serum albumin (BSA) in Hanks buffered saline (HBSS). An aliquot of cells (1×10^6) was added to 500 μL diluted binding buffer from the ANNEXIN-V PI Kit (BD Biosciences, San Jose, Calif.). Cells were pelleted, re-suspended in 100 μL of diluted binding buffer, and treated with the ANNEXIN-V PI reagent as per the manufacturer's protocol.

A549 cells [2] = test: Intracellular free zinc (FluoZin-3 fluorescence), A549; format: cell-based, human; details: for Increase in cellular FluoZin-3 fluorescence: A549, MGd in the absence of actinomycin D
Description: (§1) Methods: The concentration of intracellular free zinc was assessed using the ion-specific fluorescent probe, FluoZin-3-AM™ (FluoZin-3, Molecular Probes, Inc.). […] Following treatment, cells were isolated by centrifugation. Cell pellets were washed and re-suspended in a solution of 0.5% BSA in PBS.

Ramos cells [3] = test: Mitochondrial membrane potential (JC-1), Ramos; format: cell-based; details: single agent alone
Description: Mitchondrial membrane potential. Loss of the mitochondrial membrane potential (ΔΨm) of cells was measured by the use of JC-1 (Molecular Probes, Inc., Eugene, Oreg.). Cells undergoing early apoptosis lose fluorescence in the 585 nm channel and gain it in the 530 nm channel. Briefly, cells cultured as described above were washed twice with complete medium, re-suspended in 0.5 mL JC-1 solution (10 μg/mL in complete medium), and incubated at 37° C. for 15 minutes. Cells were isolated by centrifugation, washed once and then re-suspended in 0.5 mL solution of 0.5% BSA in PBS and assayed immediately on the flow cytometer.

Thioredoxin reductase = test: Lipoate reduction (thioredoxin reductase activity) in intact A549 cells; format: cell-based, human; details: for Inhibition of lipoate reduction: plateau phase A549, two-hour treatment
Description: Methods: Lipoate Reduction. Thioredoxin reductase activity was assessed by measuring the rate of lipoate reduction. In brief, A549 or PC3 cells (10,000 cells/well) were plated on 96-well plates and allowed to adhere overnight and grow two additional days until confluent. Cells were treated with MGd, zinc, or 5% mannitol for 2-4 hours, as indicated. Medium was removed, cells were washed with Hanks Balanced Salt Solution (HBSS), and a solution of 5 mM lipoic acid and 1 mM 5,5′-dithiobis(2-nitrobenzoic acid) in HBSS (100 μL/well) was added. Plates were incubated at ambient temperature in the dark. At chosen time intervals, plate absorbance was measured at 405-650 nm. Plate absorbances were normalized to wells containing neither exogenous zinc nor texaphyrin complex to allow plate-to-plate comparison. In some experiments, L-buthionine-[S,R]-sulfoximine (BSO, 100 μM) was added 24 hours prior to MGd or zinc treatment, to inhibit any contribution to lipoate reduction made by glutathione-dependent pathways (28). Actinomycin D (2.5 μg/mL) or cycloheximide (10 μg/mL), where present, was added 1 hour prior to texaphyrin or zinc treatment. Viability was checked on parallel plates using the tetrazolium dye 3-(4,5-dimethylthiazol-2-yl)-5-(3-carboxymethoxyphenyl)-2-(4-sulfophenyl)-2H-tetrazolium (MTS) following the manufacturers protocol (Promega Corp.).

PC3 cells [4] = test: Colony forming assay, PC3; format: cell-based; details: 10 μM MGd, 75 μM zinc
[5] = tested on: Ramos B-cell lymphoma cells; test: Proliferation, Ramos; format: cell-based; details: 50 μM zinc
Description: (§2) Methods: The proliferation of exponential phase cultures was assessed by colorimetric assay. In brief, 2×10^5 suspension cells per well were seeded on 96-well V-bottom microtiter plates. Stock solutions of control vehicle, MGd or Zn(OAc)2 in medium were added and plates were incubated at 37° C. under a 5% CO2/95% air atmosphere. After 24 hours, medium was replaced with fresh medium. After 2 additional days, medium was exchanged with fresh medium (150 μL/well) supplemented with 3-(4,5-dimethylthiazol-2-yl)-2,5-diphenyltetrazolium bromide (MTT, 0.5 mg/mL, Sigma Biochemical, St. Louis, Mo.). Plates were incubated at 37° C. and viable cells measured.
as §2, with “Cellular Proliferation—The” for “Methods: The”

A549 cells [6] = test: Cell viability by propidium iodide exclusion, A549
Description: Methods: Cellular Viability. Cell viability was determined by using propidium iodide (PI) flow cytometric analysis. Cells from plateau phase cultures grown in T-25 flasks were harvested as described above, except that cells present in the growth medium and wash solution were isolated by centrifugation and included in the analysis. Cells were resuspended in 1 mL PBS, an aliquot of 3×10^5 cells transferred to a 4 mL tube, and the cells isolated by centrifugation. Cell pellets were resuspended in PBS supplemented with 2 μg/mL propidium iodide (Sigma), incubated for 5 minutes at ambient temperature, and subjected to flow cytometric analysis. Flow cytometry was performed on a FACSCalibur instrument and data were analyzed using the CellQuest Pro software package (BD Biosciences).

Ramos cells [7] = test: Intracellular free zinc (FluoZin-3 fluorescence), Ramos; format: cell-based; details: 10 μM MGd or 50 μM zinc alone
Description: as §1, with “Methods: Intracellular Free Zinc.” for “Methods:”

Ramos cells [8] = test: Reactive oxygen species (DCFA to DCF), Ramos; format: cell-based; details: single agents
Description: Methods: Reactive oxygen species were measured in live cells as intracellular peroxides by monitoring the oxidation of 2′,7′-dichlorofluorescin-diacetate (DCFA) to 2′,7′-dichlorofluorescein (DCF) (Molecular Probes). Cells (1×10^6 per mL) were incubated in a solution of 1 μg per mL DCFA in 0.5% BSA in HBSS for 15 minutes at 37° C. Two mL additional 0.5% BSA in HBSS was added, cells were isolated by centrifugation, and the pellet re-suspended in a solution of 50 μg/mL 7-aminoactinomycin D (7-AAD) in 0.5% BSA in HBSS. Cell suspensions were incubated at ambient temperature for 2 to 3 minutes, and stored on ice until analysis. The fluorescent intensity in live (i.e., 7-AAD impermeable) cells was analyzed by flow cytometry.

[9] = tested on: Ramos, Raji, DB, DHL-4, HF-1, Jurkat, K562 and HL-60 cell lines; test: Proliferation of hematologic cell lines; format: cell-based; details: for Effect on proliferation: low concentrations of zinc or MGd alone
Description: as §2, with “Cellular Proliferation—The” for “Methods: The”

A549 cells [10] = test: Proliferation (tetrazole reduction/MTT), A549; format: cell-based, human; details: for A549 cell proliferation: exponential phase, 24 hours treatment plus 48 hr growth, zinc up to 100 μM
Description: as §2

PC3 cells [11] = test: Proliferation, PC3; format: cell-based
Description: as §2

Compound	Annexin-V signal (Ramos cells [1])	JC-1 fluorescence (Ramos cells [3])	Inhibition of lipoate reduction (Thioredoxin reductase)	Surviving fraction (PC3 cells [4])	Cellular proliferation [5]	FluoZin-3 fluorescence (Ramos cells [7]; by 12 hours)	FluoZin-3 fluorescence (Ramos cells [7]; within 2 hours)	DCF signal (Ramos cells [8])	Effect on proliferation ([9]; all cell lines)	A549 cell proliferation (A549 cells [10])	also measured
CC(=O)[O-].CC(=O)[O-].CCc1c(CC)c2cc3nc(cnc4cc(OCCOCCOCCOC)c(OCCOCCOCCOC)cc4ncc4nc(cc1[n-]2)C(CCCO)=C4C)C(C)=C3CCCO.O.[Gd+3] [MGd, Motexafin gadolinium]	No significant change	No significant change	approximately 10%	without effect	without effect	returned to baseline levels	small increases	increased DCF signal	no significant effect	no effect on proliferation	Increase in cellular FluoZin-3 fluorescence (A549 cells [2]; serum medium): 1.2 fold; Increase in cellular FluoZin-3 fluorescence (A549 cells [2]; serum-free medium): 1.1 fold; Effect of MGd on inhibition of lipoate reduction by zinc (Thioredoxin reductase; A549): potentiated; Apparent inhibitory concentration of MGd (Thioredoxin reductase; A549, dose-dependent effect of MGd on inhibition with zinc): approximately 2.5 μM; Concentration above which the effect of MGd on lipoate reduction saturated (Thioredoxin reductase; A549, potentiation of zinc inhibition): approximately 5 μM; Effect of MGd on the cytotoxicity of CdCl2 (A549 cells [6]; A549 cells, FIG. 2A): attenuated; Effect of MGd on sensitivity to zinc (proliferation) ([9]; all cell lines): increased; Effect of MGd co-treatment on the inhibition of proliferation by zinc ([9]; all lines except HL60): potentiated the inhibition by zinc; Effect of MGd on the anti-proliferative activity of zinc (A549 cells [10]; A549, all MGd concentrations tested): enhanced the anti-proliferative activity of zinc; Effect of MGd on the effect of zinc on proliferation (PC3 cells [11]; PC3): enhanced the effect of zinc
CC(=O)[O-].CC(=O)[O-].[Zn+2] [Zn(OAc)2, Zinc acetate]	No significant change	No significant change	≤ 30%	without effect	without effect	returned to baseline levels	small increases	increased DCF signal	no significant effect	modestly inhibited	Cell-associated fluorescence of FluoZin-3 at 530 nm (A549 cells [2]; A549, 4 hours, Zn(OAc)2 50-100 μM): significantly increased; Cellular viability (propidium iodide exclusion) (A549 cells [6]; A549, 24 hours, Zn(OAc)2 100 μM, CdCl2 50 μM, MGd 50 μM): no effect on cellular viability; Proliferation ([9]; 50 to 100 μM zinc, four additional B-cell lines, K562, Jurkat): inhibited the proliferation; PC3 cell proliferation (PC3 cells [11]): inhibited
